Measured values as given in ChEMBL document CHEMBL1150446, “Inhibition of human cytomegalovirus protease by benzoxazinones and evidence of antiviral activity in cell culture” (Bioorg Med Chem Lett, 1997).

What was measured:
[1] = In vitro biological half-life was measured in human plasma; type: ADME
[2] = target: T1, Neutrophil elastase (Homo sapiens) (UniProt P08246); experiment: Percent inhibition against human leukocyte elastase (HLE) at a concentration of 100 microgM
T1 sequence (whole entry): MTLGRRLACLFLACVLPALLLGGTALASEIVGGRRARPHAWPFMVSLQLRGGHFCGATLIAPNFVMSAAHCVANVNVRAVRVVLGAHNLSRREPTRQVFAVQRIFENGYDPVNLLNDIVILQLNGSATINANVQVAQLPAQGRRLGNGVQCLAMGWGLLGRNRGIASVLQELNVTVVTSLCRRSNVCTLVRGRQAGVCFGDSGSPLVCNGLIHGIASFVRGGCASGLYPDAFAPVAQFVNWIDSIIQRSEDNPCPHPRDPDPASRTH

[3] = target: T2, Chymotrypsinogen B (Homo sapiens, UniProt P17538); experiment: Inhibitory concentration against human chymotrypsin
T2 sequence (P17538 34-164 limits assumed, other chains not shown): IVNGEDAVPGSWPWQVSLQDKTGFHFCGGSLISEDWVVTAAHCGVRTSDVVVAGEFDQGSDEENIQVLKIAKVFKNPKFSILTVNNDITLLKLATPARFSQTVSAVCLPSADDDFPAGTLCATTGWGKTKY
T2 sequence (P17538 167-263 limits assumed, other chains not shown): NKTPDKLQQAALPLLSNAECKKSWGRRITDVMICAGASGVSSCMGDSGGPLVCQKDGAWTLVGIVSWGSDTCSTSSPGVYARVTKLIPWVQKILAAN

[4] = target: T3, Neutrophil elastase (Homo sapiens, UniProt P08246); experiment: Inhibitory concentration against human leukocyte elastase (HLE)
T3 sequence (P08246 whole entry): T1 sequence (whole entry)

[5] = target: T2, Chymotrypsinogen B; experiment: Inhibitory concentration against human chymotrypsin at a concentration of 100 uM
[6] = target: T1, Neutrophil elastase (Homo sapiens); experiment: Percent inhibition against human leukocyte elastase (HLE) at a concentration of 10 microgM
[7] = target: T2, Chymotrypsinogen B; experiment: Inhibitory concentration against human chymotrypsin at a concentration of 10 uM

Structure (SMILES) | half-life [1] [min] | inhibition [2] [%] | IC50 [3] [nM] | IC50 [4] [nM] | inhibition [5] [%] | inhibition [6] [%] | inhibition [7] [%]
Cc1c(NC(=O)CN(C)C)ccc2nc(N[C@H](C)c3ccccc3)oc(=O)c12 | 32 | 67 | 2600 |  |  |  | 
Cc1c(NC(=O)CN2CCCC2)ccc2nc(N[C@H](C)c3ccccc3)oc(=O)c12 | 32 | 36 |  |  | 47 |  | 
COc1ccc(S(=O)(=O)Nc2ccc3nc(N[C@H](C)c4ccccc4)oc(=O)c3c2C)cc1 | 50 | 66 | 3600 |  |  |  | 
Cc1cccc2nc(N[C@H](C)c3ccc(Br)cc3)oc(=O)c12 | 50 |  | 140 | 20 |  |  | 
Cc1c(NC(=O)c2ccccn2)ccc2nc(N[C@H](C)c3ccccc3)oc(=O)c12 | 31 |  |  |  |  | 29 | 28
Cc1c(N(C)C)ccc2nc(N[C@H](C)c3ccccc3)oc(=O)c12 | 127 |  | 65 | 3200 |  |  | 
Cc1cccc2nc(N[C@@H](C)c3ccccc3)oc(=O)c12 | 70 |  | 180 | 44 |  |  | 

Further compounds by falling IC50 [3], results first:

half-life [1] [min] | inhibition [2] [%] | IC50 [3] [nM] | IC50 [4] [nM] | inhibition [5] [%] | inhibition [6] [%] | inhibition [7] [%] | Structure (SMILES)
30 |  | 42000 |  |  |  |  | Cc1c(NC(=O)OC(C)(C)C)ccc2nc(N[C@H](C)c3ccccc3)oc(=O)c12
107 |  | 2000 | 33 |  |  |  | Cc1cccc2nc(NC(C)C)oc(=O)c12
67 |  | 88 |  |  |  |  | Cc1cccc2nc(N[C@H](C)c3ccccc3)oc(=O)c12
